Data on seven molecules can be found in patent US20190124918A1, “BIOFILM FORMATION INHIBITOR AND BIOFILM FORMATION INHIBITING COMPOSITION” (KAO CORPORATION, priority 2016, published 2019).

Data set [1] deals with biofilm-forming microbe isolated from cooling water taken from a water cooling tower. The experiment in a line: Biofilm inhibition test, quinone-based compound and organic solvent (OD570). Particulars: for OD570: alone or added as test solution in Diacetone alcohol, no addition gave 2.15. It counts as cell-based. As for the experimental part:
A biofilm-forming microbe (microbe providing a OD570 value of 0.3 or more in the test for determining the amount of biofilm in the following section 4-3) isolated from cooling water taken from a water cooling tower was cultured in R2A culture medium at 30° C. for 16 hours while shaking. The turbidity (OD600) of the resultant culture solution was measured. The culture solution was diluted with R2A culture medium to prepare a suspension of 10^3 cfu/mL.
The suspension of a test microbe prepared in the above section 4-1) was added in individual wells of a 96 well microplate in an amount of 150 μL. Thereafter, the test solution prepared in the above section 2) was add and culture was initiated.
The 96 well microplate was subjected to stationary culture performed at 30° C. for 48 hours. The culture solution was removed and the resultant microplate was washed with water. Subsequently, each well was stained with 0.1% crystal violet and 200 μL of ethanol was added. The absorbance (OD570) was measured to obtain the amount of biofilm (BF) formed.

Data set [2] can be described thus: Dissolution in solvent (MDG) when preparing compositions. Particulars: preparation of compositions. The class given is physicochemical. As for the experimental part: Predetermined amounts of p-toluquinone and HEDP were weighed and solvent (MDG) was added to prepare a composition. Since citric acid and EDTA were not dissolved in MDG, they were directly added in culture solutions; at the same time, p-toluquinone was directly added to the culture solutions.

Data set [3] relates to Pseudomonas PAO1 strain (ATCC 15692). Description: Amount of biofilm formed (crystal violet, OD570), 96-well microplate culture. The class given is cell-based. As for the experimental part: Pseudomonas PAO1 strain (ATCC 15692) was subjected to stationary culture performed in LB culture medium (Lysogeny Broth; manufactured by Becton Dickinson) at 37° C. for 24 hours. The turbidity (OD600) of the culture solution was measured. The culture solution was diluted with Mueller Hinton Broth (BBL made) to prepare a suspension (15 mL) having a turbidity (OD600) of 1/10^6. […]
(§1) Growth inhibition rates relative to the control (ethanol alone) were calculated based on OD600 values measured and in accordance with the following expression. In addition, biofilm (BF) formation inhibition rates relative to the control (ethanol alone) were calculated based on OD570 values and in accordance with the following expression:
BF inhibition (%)={1−(compound addition group OD570/control group OD570)}×100
(§2) As a control, an ethanol solvent alone was used (EtOH control). The concentrations of test compounds in the ethanol solution were as follows: test compound 1: 20 mM, test compounds 2 to 7: 100 mM. To each of the wells of a 96-well microplate (351172; manufactured by Japan Becton Dickinson), 6 μL of DMSO (Tokyo Kasei) and an ethanol solution of each test compound (1 to 8 μL) were added and then the microplates were allowed to stand still at room temperature for 5 hours to evaporate ethanol. A suspension solution of a Pseudomonas microbe prepared in the same procedure as in Test Example 1, 1) was added in an amount of 145 μL per well and culture was initiated.
(§3) After the 96-well microplate was subjected to stationary culture at 30° C. for 24 hours, turbidity (OD600) was measured to check growth. Subsequently, individual wells were stained with 0.1% crystal violet and thoroughly washed twice with physiological saline. To each well, 200 μL of ethanol was added and the absorbance (OD570) was measured to obtain the amount of the biofilm formed. The growth inhibition rate and biofilm (BF) formation inhibition rate were calculated based on OD600 and OD570 values measured and in accordance with the expressions used in Test Example 2.

Data set [4] has the same test system. Description: Growth of test microbe (turbidity OD600), 96-well microplate culture. The class given is cell-based. The protocol: Pseudomonas PAO1 strain (ATCC 15692) was subjected to stationary culture performed in LB culture medium (Lysogeny Broth; manufactured by Becton Dickinson) at 37° C. for 24 hours. The turbidity (OD600) of the culture solution was measured. The culture solution was diluted with Mueller Hinton Broth (BBL made) to prepare a suspension (15 mL) having a turbidity (OD600) of 1/10^6.
To each of the wells of a 96-well microplate (351172; manufactured by Japan Becton Dickinson), 6 μL of DMSO (Tokyo Chemical Industry Co. Ltd) and an ethanol solution (1 μL, 3 μL or 5 μL) of a test compound were added. After that, the microplate was allowed to stand still at room temperature for 5 hours to evaporate ethanol. The suspension of Pseudomonas microbe prepared in the above step 1) was added in an amount of 145 μL per well and culture was initiated. As the test compound, 2-methylhydroquinone (Sigma Aldrich) and p-toluquinone (Tokyo Kasei) were used. As a reference compound, sodium hypochlorite (manufactured by Wako Pure Chemical Industries Ltd.) was used. As a control, an ethanol solvent (EtOH control) alone was used. The concentration of the test compound in the ethanol solution is 1,000 ppm or 10,000 ppm and the final concentration of the test compound in the culture solution was about from 7 to 333 ppm.
After the 96-well microplate was subjected to stationary culture performed at 30° C. for 24 hours, turbidity (OD600) was measured to check growth. Subsequently, individual wells were stained with 0.1% crystal violet and thoroughly washed twice with physiological saline. To each well, 200 μL of ethanol was added and the absorbance (OD570) was measured to obtain the amount of the biofilm formed.
Compounds listed in Table 3 were each added to a test microbe and culture was conducted by the same procedure as in Test Example 1 and the amount of growth (OD600) and the amount of biofilm formed (OD570) were measured. For compounds a, b, c, f, h, i, J and k, 20 mM ethanol solutions were prepared; whereas for compounds d, e, g, 5 mM ethanol solutions were prepared. The solutions were each added to a 96-well microplate in an amount of 1 to 8 μL and evaluation was made. The final concentrations of the individual compounds are described in Table 3.
as §1
Growth inhibition (%)=(1−(compound addition group OD600/control group OD600))×100
as §2, §3

The test system of data set [5] is cooling water taken from a water cooling tower. The experiment in a line: Aqueous system model (annular reactor): number of bacterial cells in water at inlet and outlet (R2A agar). It counts as cell-based. Particulars: Test Example 5; same procedure as Test Example 4; solvent control also about 10^4. The protocol:
(§4) Biofilm formation inhibitory activity of p-toluquinone (Tokyo Kasei) was evaluated by an aqueous system model using an annular reactor (Art Science Co., Ltd.) having a 100 mL-volume culture tank. In the culture tank of the annular reactor, a cylindrical rotating body rotating at a speed of 160 rounds per minute was installed. To the rotating body, 12 test pieces were attached in advance. These test pieces were taken out at predetermined time intervals and biofilm formed on the test pieces was quantified. From a water cooling tower provided on a building rooftop and actually used, cooling water was taken and supplied to the annular reactor culture vessel (maintained at 30° C.) at a flow rate of 10 mL per minute; at the same time, an ethanol solution (15 g/L) of p-toluquinone was separately supplied to the annular reactor culture vessel by a syringe pump YSP-201 (manufactured by YMC) at a flow rate of 10 μL per minute (p-toluquinone concentration in cooling water in the culture tank was 15 ppm). The test pieces (n=2) taken out from the culture tank at predetermined time intervals were stained with 0.1% crystal violet, thoroughly washed twice with physiological saline and recovered in ethanol (15 mL). The absorbance (OD570) was measured to obtain the amount of the biofilm formed. […] Thereafter, the number of bacteria cells was measured. […]

For data set [6] the test system is unchanged. Description: Aqueous system model (annular reactor): amount of biofilm formed on test pieces (OD570). It counts as cell-based. Particulars: Test Example 5; same procedure as Test Example 4; solvent control finally beyond 1.0. The protocol:
as §4

[7] abbreviates: Test Example 3, final concentration 83 ppm.
[8] abbreviates: Test Example 3, final concentration 165 ppm.
The mark [9] stands for this setting: Test Example 3, final concentration 331 ppm.
The mark [10] stands for this setting: Test Example 3, final concentration 496 ppm.
The mark [11] stands for this setting: Test Example 3, final concentration 579 ppm.
Where [12] appears, read: Test Example 3, final concentration 661 ppm.

For `CCCCCCc1ccc(O)cc1O` [4-Hexylresorcinol], the OD570 amounted to 1.49 in data set [1] (4-Hexylresorcinol 10 ppm) and 0.10 in data set [1] (4-Hexylresorcinol 20 ppm).
`O=C(O)CN(CCN(CC(=O)O)CC(=O)O)CC(=O)O` [EDTA, Ethylenediaminetetraacetic acid]: the “dissolution in MDG (diethylene glycol monomethyl ether)” value in data set [2] was “not dissolved”.
A word on the inhibition: it is the share of the control response that was lost under treatment. As to `CCCCc1ccc(O)cc1O` [Compound 1, 4-Butylresorcinol], the inhibition at 22 ppm in data set [3] (Pseudomonas, Test Example 3, final concentration 22 ppm, read-out: BF inhibition (%)) is 0.5%; in data set [4] (Pseudomonas, Test Example 3, final concentration 22 ppm), below 0%. The inhibition at 44 ppm was 18.3% in data set [3] (Pseudomonas, Test Example 3, final concentration 44 ppm, read-out: BF inhibition (%)) and below 0% in data set [4] (Pseudomonas, Test Example 3, final concentration 44 ppm). In addition, the inhibition at 89 ppm is 4.5% in data set [3] (Pseudomonas, Test Example 3, final concentration 89 ppm, read-out: BF inhibition (%)) and below 0% in data set [4] (Pseudomonas, Test Example 3, final concentration 89 ppm). For the same molecule, the inhibition at 133 ppm in data set [3] (Pseudomonas, Test Example 3, final concentration 133 ppm, read-out: BF inhibition (%)) was 12.9%; in data set [4] (Pseudomonas, Test Example 3, final concentration 133 ppm), below 0%. Also, the inhibition at 155 ppm came out at 54.9% in data set [3] (Pseudomonas, Test Example 3, final concentration 155 ppm, read-out: BF inhibition (%)) and 42.8% in data set [4] (Pseudomonas, Test Example 3, final concentration 155 ppm). Moreover, the inhibition at 177 ppm in data set [3] (Pseudomonas, Test Example 3, final concentration 177 ppm, read-out: BF inhibition (%)) worked out at 45.9%; in data set [4] (Pseudomonas, Test Example 3, final concentration 177 ppm), 32.7%. Also, the “number of bacterial cells at the inlet or outlet of the reactor” value in data set [5] was “about 10^4 cells/mL”. In addition, in data set [6], the “amount of the biofilm formed (OD570)” value is listed as at most 0.4.
In the case of `Cc1cc(O)c(C)c(C)c1O` [g, 2,3,5-Trimethylhydroquinone], the inhibition at 5 ppm is 45.5% in data set [3] (Pseudomonas, final concentration 5 ppm, read-out: BF inhibition (%)) and below 0% in data set [4] (Pseudomonas, final concentration 5 ppm). The inhibition at 10 ppm in data set [3] (Pseudomonas, final concentration 10 ppm, read-out: BF inhibition (%)) was 42.2%; in data set [4] (Pseudomonas, final concentration 10 ppm), below 0%. Moreover, the inhibition at 20 ppm amounted to 48% in data set [3] (Pseudomonas, final concentration 20 ppm, read-out: BF inhibition (%)) and 0.1% in data set [4] (Pseudomonas, final concentration 20 ppm). The inhibition at 30 ppm worked out at 54.7% in data set [3] (Pseudomonas, final concentration 30 ppm, read-out: BF inhibition (%)) and 65.8% in data set [4] (Pseudomonas, final concentration 30 ppm). Further, the inhibition at 35 ppm is 93.9% in data set [3] (Pseudomonas, final concentration 35 ppm, read-out: BF inhibition (%)) and 67.5% in data set [4] (Pseudomonas, final concentration 35 ppm). Also, the inhibition at 41 ppm in data set [3] (Pseudomonas, final concentration 41 ppm, read-out: BF inhibition (%)) is 90.4%; in data set [4] (Pseudomonas, final concentration 41 ppm), 68.5%.
`OCCOCCO` [diethylene glycol]: the “decrease of BF formation inhibitory effect of the quinone-based compound by the organic solvent (in words)” value in data set [1] (from the results in Table 13, among the organic solvents tested) is on record as “lowest”.
As to `Cc1cc(O)cc(O)c1` [Compound 2, 5-Methylresocinol], the “BF inhibition (%)” value in data set [3] (setting [7]) is “— (No growth inhibition or no BF inhibition)”; in data set [3] (setting [8]), “— (No growth inhibition or no BF inhibition)”; in data set [3] (setting [9]) it was “— (No growth inhibition or no BF inhibition)”; in data set [3] (setting [10]), 57.5%; in data set [3] (setting [11]) it was 57.7%; in data set [3] (setting [12]) it was 70.2%. The “Growth inhibition (%)” value in data set [4] (setting [7]) is “— (No growth inhibition or no BF inhibition)”; in data set [4] (setting [8]) it was 10.4%; in data set [4] (setting [9]), “— (No growth inhibition or no BF inhibition)”; in data set [4] (setting [10]) it was “— (No growth inhibition or no BF inhibition)”; in data set [4] (setting [11]), 17.6%; in data set [4] (setting [12]), “— (No growth inhibition or no BF inhibition)”.
Turning to `CC1=CC(=O)C=C(C)C1=O` [i, 3,5-Dimethylbenzoquinone], the inhibition at 18 ppm in data set [3] (Pseudomonas, final concentration 18 ppm, read-out: BF inhibition (%)) turned out to be 17.2%; in data set [4] (Pseudomonas, final concentration 18 ppm), 5.3%. Further, the inhibition at 36 ppm is 26.2% in data set [3] (Pseudomonas, final concentration 36 ppm, read-out: BF inhibition (%)) and below 0% in data set [4] (Pseudomonas, final concentration 36 ppm). For the same molecule, the inhibition at 72 ppm is 29.4% in data set [3] (Pseudomonas, final concentration 72 ppm, read-out: BF inhibition (%)) and 29.7% in data set [4] (Pseudomonas, final concentration 72 ppm). The inhibition at 109 ppm is 54% in data set [3] (Pseudomonas, final concentration 109 ppm, read-out: BF inhibition (%)) and 33.5% in data set [4] (Pseudomonas, final concentration 109 ppm). Further, the inhibition at 127 ppm in data set [3] (Pseudomonas, final concentration 127 ppm, read-out: BF inhibition (%)) came to 60.9%; in data set [4] (Pseudomonas, final concentration 127 ppm), 33.7%. Further, the inhibition at 145 ppm is 55.8% in data set [3] (Pseudomonas, final concentration 145 ppm, read-out: BF inhibition (%)) and 37.7% in data set [4] (Pseudomonas, final concentration 145 ppm).
